pIC50: −log10 of the molar value. Like-named read-outs stand apart in the source and are kept apart here.
Tests used:
[1] = i.v./p.o. crossover PK study in rat; assay type: in vivo
[2] = target: FimH (Escherichia coli, UniProt Q1R2J4); assay type: cell-based, uropathogenic E. coli (UPEC) strain UTI89; conditions: for HAI: hemagglutination inhibition titer (EC>90, Figure 5 legend)
[3] = test system: UPEC biofilm formation; assay: biofilm prevention assay; assay type: cell-based, uropathogenic E. coli (UPEC) strain UTI89; conditions: read-out: Biofilm IC50
[4] = test system: UTI89 chronically infected mice; assay: murine model of chronic UTI; assay type: in vivo; conditions: 50 mgkg^−1 p.o., 10% cyclodextrin, 6 h post-dosing
[5] = target: FimH lectin domain (Escherichia coli, UniProt P08191); design: species or system uropathogenic E. coli (UPEC); conditions: melting temperature of FimH lectin domain, relative binding strength
[6] = in vivo mouse PK, urine mannoside concentration; conditions: mice, 50 mgkg^−1 oral gavage, 10% cyclodextrin, 1 h post-dosing

Sequence of FimH lectin domain (P08191 22-179): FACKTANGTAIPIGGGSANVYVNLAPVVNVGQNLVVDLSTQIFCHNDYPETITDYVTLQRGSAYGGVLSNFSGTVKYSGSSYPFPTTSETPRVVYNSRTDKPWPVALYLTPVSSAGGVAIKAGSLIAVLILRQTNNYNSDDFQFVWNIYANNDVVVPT

Structure (SMILES) | Rat F ([1]; 10 mgkg^−1 oral (p.o.) dose, 10% cyclodextrin formulation) | Rat CL ([1]; calculated from a 10 mgkg^−1 oral (p.o.) dose, 10% cyclodextrin formulation) | half-life ([1]; rat, in vivo, po, 10 mgkg^−1) | HAI [2] | increase in activity in HA assay relative to 16 and 17, respectively ([2]; ortho-methyl matched pairs) | pIC50 ([3]; Escherichia coli) | additional drop in CFUs per bladder relative to 5, 7 (and 17b) [4] | DSF Tm [5] | initial urine concentration [6] | pIC50 ([3]; biofilm prevention)
Cc1cc(-c2ccc3cc[nH]c(=O)c3c2)ccc1O[C@H]1O[C@H](CO)[C@@H](O)[C@H](O)[C@@H]1O [Compound 22, 2-methyl-4-(1-oxo-1,2-dihydroisoquinolin-7-yl)phenyl α-D-mannopyranoside] | 7.0% | 408 mLmin^−1kg^−1 | < 3 h | 0.031 µM | fourfold | 6.89 | 10 fold | 75.5 °C | elevated relative to 5 | –
COC(=O)c1cccc(-c2ccc(O[C@H]3O[C@H](CO)[C@@H](O)[C@H](O)[C@@H]3O)cc2)c1 [Compound 2] | – | – | – | 1.0 µM | – | – | – | 73.4 °C | – | 6.03

Source: publication PMC4818977 (ChemMedChem, 2016)
